Consider seven molecules from ChEMBL document CHEMBL1201862, “PubChem BioAssay data set” (2004).

Activity calls are given as the source filed them.

For assay [1], the target named is Neuropeptide Y receptor type 2 (Homo sapiens, UniProt P49146). Put plainly: Fluorescence-based cell-based high-throughput dose response assay for agonists of NPY-Y2. [Related pubchem assays: 1703 (Screening assay (CNGC inhibitors).), 1359 (Screening assay (NPY-Y2 potentiators or agonists).), 1304 (Screening assay (NPY-Y1 potentiators or agonists).), 1710 (Screening assay (NPY-Y2 agonists).), 1791 (Summary AID.)]. In kind it is functional.

For assay [2], the target named is T1, Heat shock factor protein 1 (Mus musculus, UniProt P38532).
T1 sequence (P38532 whole entry): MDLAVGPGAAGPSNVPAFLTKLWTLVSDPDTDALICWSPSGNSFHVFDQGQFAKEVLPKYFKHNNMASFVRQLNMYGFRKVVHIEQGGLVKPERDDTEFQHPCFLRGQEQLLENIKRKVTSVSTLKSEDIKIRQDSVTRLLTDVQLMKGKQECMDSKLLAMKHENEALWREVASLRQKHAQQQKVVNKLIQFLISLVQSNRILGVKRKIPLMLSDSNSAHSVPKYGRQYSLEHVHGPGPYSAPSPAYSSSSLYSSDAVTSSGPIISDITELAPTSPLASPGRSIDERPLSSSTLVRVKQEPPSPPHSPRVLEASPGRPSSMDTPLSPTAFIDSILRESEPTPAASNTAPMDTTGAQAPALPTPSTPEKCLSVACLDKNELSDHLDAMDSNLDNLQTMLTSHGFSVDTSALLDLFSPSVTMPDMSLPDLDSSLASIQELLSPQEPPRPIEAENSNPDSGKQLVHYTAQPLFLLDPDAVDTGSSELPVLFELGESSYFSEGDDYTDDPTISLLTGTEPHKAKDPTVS
Description: enhancement of HSF1-driven luciferase signal – cell-based, NIH3T3, luminescence, dose retest, confirmation (AID 435004).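 Note: stress induced by proteasome inhibitor MG132 added 30 min after compound; luciferase reporter driven by HSF1 response element in NIH3T3 cells; actives raise luminescence as potentiators of the MG132 stress response.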 In kind it is functional.

Assay [3] concerns the target Neuropeptide Y receptor type 1 (Homo sapiens, UniProt P25929). Description: Fluorescence-based counterscreen for agonists of NPY-Y2: cell-based high-throughput dose response assay for agonists of NPY-Y1. In kind it is functional.
Assay [4] deals with HEK293. Description: Fluorescence-based counterscreen for potentiators or agonists of NPY-Y2: cell-based high-throughput dose response assay to identify inhibitors of cyclic nucleotide gated ion channel (CNGC) activity. In this assay, the parental HEK293 cell line transfected with a cyclic-nucleotide gated ion channel (CNGC)-based cAMP sensor is used to measure inhibition of isoproterenol-induced CNGC activity by test compound. It counts as functional. Conditions: Homo sapiens.

In assay [5] the target is Eukaryotic translation initiation factor 4E (Mus musculus, UniProt P63073). Put plainly: blockers of eIF4G binding by eIF4E – biochemical, TR-FRET, dose response (AID 855).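 Note: potency for disrupting eIF4E binding to eIF4GI seen as loss of FRET.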 It counts as functional.
The target in assay [6] is Induced myeloid leukemia cell differentiation protein Mcl-1 (Homo sapiens, UniProt Q07820). In kind it is functional.
The target of assay [7] is C-C chemokine receptor type 6 (Homo sapiens, UniProt P51684). Put plainly: antagonism of CCR6 beta-arrestin recruitment – cell-based, luminescent beta-arrestin readout, dose response (AID 504728). It counts as functional.
The target in assay [8] is Beta-galactosidase (Escherichia coli, UniProt Q8VNN2). Description: detection-enzyme interference by beta-gal modulators – biochemical, E. coli enzyme, set 3, artefact control for CCR6 antagonist project, dose response (AID 504712). In kind it is functional.
A short description of assay [9]: A Cell Based Secondary Assay To Explore Cytotoxicity of Compounds that Sensitize Mycobacterium Tuberculosis to Beta-Lactam Antibiotics. In kind it is functional.
Assay [10] deals with T2, DNA repair protein RAD52 homolog (Homo sapiens, UniProt P43351).
T2 sequence (P43351 whole entry): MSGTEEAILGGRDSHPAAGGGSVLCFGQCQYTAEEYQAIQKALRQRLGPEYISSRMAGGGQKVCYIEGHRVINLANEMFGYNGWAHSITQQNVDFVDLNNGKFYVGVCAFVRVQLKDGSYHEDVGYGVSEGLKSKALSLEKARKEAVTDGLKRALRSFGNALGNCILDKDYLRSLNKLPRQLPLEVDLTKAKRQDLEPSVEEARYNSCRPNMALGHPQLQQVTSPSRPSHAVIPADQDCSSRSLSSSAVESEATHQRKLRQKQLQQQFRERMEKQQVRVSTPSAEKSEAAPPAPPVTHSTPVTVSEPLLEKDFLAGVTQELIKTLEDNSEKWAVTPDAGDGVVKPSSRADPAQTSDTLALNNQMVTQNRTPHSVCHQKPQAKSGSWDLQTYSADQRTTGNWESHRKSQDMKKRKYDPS
It counts as functional, biochemical.

The target in assay [11] is T3, Alkaline phosphatase, tissue-nonspecific isozyme (Homo sapiens, UniProt P05186).
T3 sequence (P05186 whole entry): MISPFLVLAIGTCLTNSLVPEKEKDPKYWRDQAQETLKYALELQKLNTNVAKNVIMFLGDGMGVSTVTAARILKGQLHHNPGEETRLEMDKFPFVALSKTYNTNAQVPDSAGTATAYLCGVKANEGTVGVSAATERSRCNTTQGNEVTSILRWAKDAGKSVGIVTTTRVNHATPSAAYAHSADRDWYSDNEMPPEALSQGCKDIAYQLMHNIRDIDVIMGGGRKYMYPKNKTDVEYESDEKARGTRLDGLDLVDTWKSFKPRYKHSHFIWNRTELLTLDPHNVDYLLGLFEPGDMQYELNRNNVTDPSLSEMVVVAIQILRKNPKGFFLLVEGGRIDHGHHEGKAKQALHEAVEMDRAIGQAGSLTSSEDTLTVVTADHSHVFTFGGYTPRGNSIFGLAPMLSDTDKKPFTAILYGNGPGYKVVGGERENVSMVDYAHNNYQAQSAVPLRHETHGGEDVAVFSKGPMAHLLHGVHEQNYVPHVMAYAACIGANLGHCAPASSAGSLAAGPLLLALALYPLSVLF

In assay [12] the target is Melanin-concentrating hormone receptor 1 (Homo sapiens, UniProt Q99705). Put plainly: Late-stage fluorescence-based counterscreen for antagonists of the G-protein coupled receptor 7 (GPR7): cell-based dose response assay to identify antagonists of the melanin-concentrating hormone receptor 1 (MCHR1). [Related pubchem assays (depositor defined):AID1861, AID1880, AID1952, AID2148, AID2251, AID2257, AID485339]. It counts as functional.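 Note: stimulated with 30 nM MCH peptide agonist.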

Assay [13] is described as follows: cells. It counts as functional.
The target in assay [14] is Lysosomal acid glucosylceramidase (Homo sapiens, UniProt P04062). Description: Dose response cell-based high throughput screening assay to identify enhancers of beta-glucosidase activity. [Related pubchem assays: 784 ]. In kind it is functional.
Assay [15] can be described thus: Counterscreen for IDE inhibitors: Luminescence-based cell-based high throughput dose response assay to identify compounds that are cytotoxic to HEK cells. [Related pubchem assays: 434962 (Primary screen (IDE inhibitors in singlicate)), 449730 (Counterscreen (Cytotoxicity in triplicate)), 435028 (Confirmation (IDE inhibitors in triplicate)) …. It counts as functional. To be noted: HEK293.

The target in assay [16] is T4, Insulin-degrading enzyme (Homo sapiens, UniProt P14735).
T4 sequence (P14735 whole entry): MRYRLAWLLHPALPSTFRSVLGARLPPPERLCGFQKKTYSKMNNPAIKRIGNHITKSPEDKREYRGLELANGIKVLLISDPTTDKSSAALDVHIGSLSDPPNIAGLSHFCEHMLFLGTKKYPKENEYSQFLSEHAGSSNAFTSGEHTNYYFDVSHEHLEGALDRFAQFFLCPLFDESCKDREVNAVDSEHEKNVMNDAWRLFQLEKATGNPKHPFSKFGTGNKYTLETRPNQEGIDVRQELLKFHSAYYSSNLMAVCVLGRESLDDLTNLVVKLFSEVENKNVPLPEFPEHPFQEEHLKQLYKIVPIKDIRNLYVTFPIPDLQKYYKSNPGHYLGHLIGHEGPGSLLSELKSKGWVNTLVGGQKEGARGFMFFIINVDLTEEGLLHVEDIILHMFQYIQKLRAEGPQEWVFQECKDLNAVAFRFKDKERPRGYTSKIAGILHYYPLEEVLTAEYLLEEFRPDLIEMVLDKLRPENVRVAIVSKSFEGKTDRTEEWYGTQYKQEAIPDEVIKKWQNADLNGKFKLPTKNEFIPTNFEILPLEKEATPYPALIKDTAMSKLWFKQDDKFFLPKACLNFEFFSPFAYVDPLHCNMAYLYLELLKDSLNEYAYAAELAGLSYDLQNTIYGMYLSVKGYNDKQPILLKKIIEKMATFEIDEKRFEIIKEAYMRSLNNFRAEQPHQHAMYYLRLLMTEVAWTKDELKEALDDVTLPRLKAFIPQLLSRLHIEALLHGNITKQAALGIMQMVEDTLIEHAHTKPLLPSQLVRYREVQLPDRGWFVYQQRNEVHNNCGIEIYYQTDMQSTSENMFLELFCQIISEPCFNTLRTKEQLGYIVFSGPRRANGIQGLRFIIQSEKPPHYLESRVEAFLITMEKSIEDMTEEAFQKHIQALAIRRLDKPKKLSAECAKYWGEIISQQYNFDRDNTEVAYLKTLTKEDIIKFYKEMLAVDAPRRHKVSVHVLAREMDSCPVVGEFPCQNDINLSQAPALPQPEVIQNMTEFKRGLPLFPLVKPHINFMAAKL
Put plainly: Dose Response: Fluorescence polarization-based cell-based high throughput dose response assay for inhibitors of insulin-degrading enzyme (IDE). [Related pubchem assays: 434962 (Primary screen (IDE inhibitors in singlicate)), 449730 (Counterscreen (Cytotoxicity in triplicate)), 435028 (Confirmation (IDE inhibitors in triplicate)), 434984 (Summary …. It counts as functional.

Chain of Melanin-concentrating hormone receptor 1 (Q99705 whole entry): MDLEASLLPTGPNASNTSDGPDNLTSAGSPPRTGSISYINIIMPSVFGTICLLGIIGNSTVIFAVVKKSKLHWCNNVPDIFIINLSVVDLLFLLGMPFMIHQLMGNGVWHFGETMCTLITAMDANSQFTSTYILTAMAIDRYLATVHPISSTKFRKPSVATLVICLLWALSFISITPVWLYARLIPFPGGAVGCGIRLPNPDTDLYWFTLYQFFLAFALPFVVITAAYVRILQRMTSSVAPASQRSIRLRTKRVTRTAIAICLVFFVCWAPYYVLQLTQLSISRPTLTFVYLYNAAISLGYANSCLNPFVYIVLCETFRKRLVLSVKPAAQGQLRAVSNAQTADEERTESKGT
Chain of Eukaryotic translation initiation factor 4E (P63073 whole entry): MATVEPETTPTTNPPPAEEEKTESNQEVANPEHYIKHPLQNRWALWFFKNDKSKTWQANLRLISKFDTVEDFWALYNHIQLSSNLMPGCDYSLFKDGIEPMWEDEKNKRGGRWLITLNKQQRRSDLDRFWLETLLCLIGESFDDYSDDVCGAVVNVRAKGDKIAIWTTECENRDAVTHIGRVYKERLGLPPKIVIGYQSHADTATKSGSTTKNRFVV
Chain of Neuropeptide Y receptor type 1 (P25929 whole entry): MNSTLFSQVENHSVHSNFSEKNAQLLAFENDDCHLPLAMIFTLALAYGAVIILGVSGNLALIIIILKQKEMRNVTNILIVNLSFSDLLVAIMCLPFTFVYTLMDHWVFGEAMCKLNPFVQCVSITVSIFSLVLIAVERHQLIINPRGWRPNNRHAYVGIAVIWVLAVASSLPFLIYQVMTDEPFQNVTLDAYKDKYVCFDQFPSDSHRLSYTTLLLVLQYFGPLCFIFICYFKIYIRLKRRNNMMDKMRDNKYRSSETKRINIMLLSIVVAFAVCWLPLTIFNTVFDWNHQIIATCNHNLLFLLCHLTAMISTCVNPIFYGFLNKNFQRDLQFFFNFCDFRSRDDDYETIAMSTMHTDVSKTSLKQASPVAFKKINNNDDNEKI
Chain of C-C chemokine receptor type 6 (P51684 whole entry): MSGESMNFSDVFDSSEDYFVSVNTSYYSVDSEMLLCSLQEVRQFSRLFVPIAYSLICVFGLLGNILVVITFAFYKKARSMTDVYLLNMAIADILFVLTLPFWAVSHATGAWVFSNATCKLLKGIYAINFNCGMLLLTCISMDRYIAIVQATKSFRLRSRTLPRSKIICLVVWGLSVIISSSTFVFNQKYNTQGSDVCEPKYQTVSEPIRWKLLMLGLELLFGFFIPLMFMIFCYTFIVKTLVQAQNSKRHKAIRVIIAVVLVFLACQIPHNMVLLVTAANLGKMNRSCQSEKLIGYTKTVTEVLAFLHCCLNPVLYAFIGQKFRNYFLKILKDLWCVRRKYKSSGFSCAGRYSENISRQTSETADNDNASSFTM
Chain of Lysosomal acid glucosylceramidase (P04062 whole entry): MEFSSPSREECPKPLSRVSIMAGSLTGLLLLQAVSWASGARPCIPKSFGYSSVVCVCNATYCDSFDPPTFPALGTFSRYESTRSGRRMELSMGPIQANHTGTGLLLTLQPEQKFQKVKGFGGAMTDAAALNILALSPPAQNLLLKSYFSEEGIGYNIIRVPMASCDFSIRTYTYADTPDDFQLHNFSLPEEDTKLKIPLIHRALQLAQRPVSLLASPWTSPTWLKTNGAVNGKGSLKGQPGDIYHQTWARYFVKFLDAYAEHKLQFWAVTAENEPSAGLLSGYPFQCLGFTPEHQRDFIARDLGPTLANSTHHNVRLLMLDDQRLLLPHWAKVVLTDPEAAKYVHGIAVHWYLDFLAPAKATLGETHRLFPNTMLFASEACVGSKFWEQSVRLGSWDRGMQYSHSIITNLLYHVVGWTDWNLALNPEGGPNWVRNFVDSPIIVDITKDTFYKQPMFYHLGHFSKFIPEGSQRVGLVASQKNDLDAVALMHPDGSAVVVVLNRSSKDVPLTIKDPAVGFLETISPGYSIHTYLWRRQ
Chain of Beta-galactosidase (Q8VNN2 whole entry): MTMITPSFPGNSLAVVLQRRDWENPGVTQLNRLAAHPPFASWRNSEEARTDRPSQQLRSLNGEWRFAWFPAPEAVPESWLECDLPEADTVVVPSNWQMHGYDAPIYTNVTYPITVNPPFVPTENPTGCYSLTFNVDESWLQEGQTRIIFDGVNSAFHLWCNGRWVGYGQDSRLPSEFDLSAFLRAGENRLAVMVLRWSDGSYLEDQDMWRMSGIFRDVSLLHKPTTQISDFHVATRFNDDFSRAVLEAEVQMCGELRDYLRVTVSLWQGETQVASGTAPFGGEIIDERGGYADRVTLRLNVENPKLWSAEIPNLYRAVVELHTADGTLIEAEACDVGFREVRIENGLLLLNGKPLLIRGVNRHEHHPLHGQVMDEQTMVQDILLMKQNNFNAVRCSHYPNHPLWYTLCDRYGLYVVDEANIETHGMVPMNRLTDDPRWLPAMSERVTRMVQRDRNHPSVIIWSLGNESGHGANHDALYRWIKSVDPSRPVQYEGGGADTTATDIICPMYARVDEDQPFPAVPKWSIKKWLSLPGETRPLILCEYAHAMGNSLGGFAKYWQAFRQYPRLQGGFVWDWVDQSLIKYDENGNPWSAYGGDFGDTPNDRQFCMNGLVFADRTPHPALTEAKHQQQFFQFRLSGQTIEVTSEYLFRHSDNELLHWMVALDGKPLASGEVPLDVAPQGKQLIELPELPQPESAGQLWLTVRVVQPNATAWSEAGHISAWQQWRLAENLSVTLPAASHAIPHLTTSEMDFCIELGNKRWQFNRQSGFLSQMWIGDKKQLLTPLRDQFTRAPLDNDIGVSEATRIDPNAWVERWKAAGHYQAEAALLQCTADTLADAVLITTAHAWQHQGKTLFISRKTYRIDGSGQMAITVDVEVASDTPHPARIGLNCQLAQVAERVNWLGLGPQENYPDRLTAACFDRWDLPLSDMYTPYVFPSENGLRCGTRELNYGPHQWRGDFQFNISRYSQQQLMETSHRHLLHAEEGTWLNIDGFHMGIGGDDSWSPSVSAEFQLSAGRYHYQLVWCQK
Chain of Induced myeloid leukemia cell differentiation protein Mcl-1 (Q07820 whole entry): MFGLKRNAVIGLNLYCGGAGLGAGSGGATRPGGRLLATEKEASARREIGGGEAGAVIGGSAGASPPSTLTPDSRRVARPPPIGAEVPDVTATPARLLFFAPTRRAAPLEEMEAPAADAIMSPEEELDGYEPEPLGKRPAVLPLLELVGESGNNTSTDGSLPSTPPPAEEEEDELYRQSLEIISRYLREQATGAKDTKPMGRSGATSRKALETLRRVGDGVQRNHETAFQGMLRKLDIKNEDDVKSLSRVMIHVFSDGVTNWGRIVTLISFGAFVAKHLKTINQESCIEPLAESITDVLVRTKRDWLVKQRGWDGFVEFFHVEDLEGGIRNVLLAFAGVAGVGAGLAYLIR
Chain of Neuropeptide Y receptor type 2 (P49146 whole entry): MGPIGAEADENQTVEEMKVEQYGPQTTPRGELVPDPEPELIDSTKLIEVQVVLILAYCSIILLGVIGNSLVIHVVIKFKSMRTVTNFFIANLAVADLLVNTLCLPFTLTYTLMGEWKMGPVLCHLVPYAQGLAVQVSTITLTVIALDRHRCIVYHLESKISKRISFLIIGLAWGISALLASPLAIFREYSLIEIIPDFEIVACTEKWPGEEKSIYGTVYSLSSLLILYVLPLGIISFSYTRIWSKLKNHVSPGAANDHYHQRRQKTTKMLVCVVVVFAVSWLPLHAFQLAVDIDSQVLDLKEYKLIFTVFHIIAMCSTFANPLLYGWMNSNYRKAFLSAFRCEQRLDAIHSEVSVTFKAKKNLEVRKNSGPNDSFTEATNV

Regarding `COCCCNC(=O)c1cnc2ccc(S(=O)(=O)N3CCc4ccccc43)cc2c1O`, the 50% effective concentration (EC50) is > 35.4 µM (not active) in assay [1], > 260 µM (inactive) in [2], > 35.4 µM (not active) in assay [3] and > 35.4 µM (not active) in assay [4].
With `COc1ccc(N2C(=O)/C(=C/C=C/c3ccccc3[N+](=O)[O-])C(=O)NC2=S)cc1`, the IC50 in assay [5] is 50 µM (inactive); in [6] it was 0.73 µM (active); in [7], > 66.6 µM (inactive); in [8], > 66.6 µM (inactive).
On to `O=S(=O)(Nc1cccc(-c2ccc(N3CCCCCC3)nn2)c1)c1ccccc1Cl`, for which the CC50 in assay [9] was > 40 µM (active).
With `CN(C)CCCN(C(=O)c1ccco1)c1nc2ccc(Br)cc2s1`, the AC50 in assay [10] was 14.1 µM (active). For the same molecule, the concentration for a half-maximal effect (EC50) in assay [11] is > 100 µM (not active).
Regarding `Cc1ccc(-n2ncc(Cl)c(OC3CCN(C(=O)OC(C)(C)C)CC3)c2=O)cc1`, the IC50 in assay [12] is 5 µM (active).
Take `CCCCSc1nnc(-c2ccc(C)cc2)o1`: the IC50 in assay [13] was 39 µM (active). Also, the EC50 in [14] is listed as > 50 µM (not active).
As to `CCCCCN(C(=O)CCC(=O)OCC(=O)c1ccc(CCC)cc1)c1c(N)n(CCCC)c(=O)[nH]c1=O`, the IC50 in assay [15] is 39.1 µM (not active); in assay [16], 10.6 µM (not active).
